# PMC4859512, “Polyamino-Isoprenic Derivatives Block Intrinsic Resistance of P. aeruginosa to Doxycycline and Chloramphenicol In Vitro” (PLoS ONE, 2016)
# Where “and” joins values, the source holds several entries; their conditions need not be identical. Identical values can stand only once.
# Key:
# [1] = system: P. aeruginosa PA01 (wt); experiment: Antibiotic susceptibility testing (broth micro-dilution MIC), strain PA01; assay type: cell-based, Pseudomonas aeruginosa
# [2] = system: P. aeruginosa PA0-7H (Mex EF overproducer); experiment: Antibiotic susceptibility testing (broth micro-dilution MIC), strain PA0-7H; assay type: cell-based, Pseudomonas aeruginosa
# [3] = system: P. aeruginosa CMZ091 (Mex XY overproducer); experiment: Antibiotic susceptibility testing (broth micro-dilution MIC), strain CMZ091; assay type: cell-based, Pseudomonas aeruginosa
# [4] = system: twenty clinical isolates of P. aeruginosa; experiment: Combined antibiotic / polyamino-isoprenic derivative on MH agar plates, clinical isolates; assay type: cell-based, Pseudomonas aeruginosa
# Description: MH agar plates were prepared, containing 2 mg/L doxycycline and 2 mg/L doxycycline in combination with compounds at a concentration of 10 μM. Bacteria, 5 μL of a suspension of each clinical isolate adjusted to 5 x 10^5 colony-forming units per ml were spotted on each plate and growth was monitored after a 18 h period of incubation at 37°C.
# PA01 is a well-studied reference strain of P. aeruginosa, however to extend our study we considered strains recently isolated from hospitalized patients. Thus, we decided to test this combination of doxycycline (2mg/L) with polyamino-isoprenic compounds (10 μM) on twenty clinical isolates recently isolated from the HIA-Laveran (see M&M section and S1 Table).
# [5] = system: P. aeruginosa strains over-expressing efflux pumps (PA01, PT629, PA01-ERY^R, PA0-7H, CMZ091, FB1); experiment: Spotting of logarithmic dilutions on MH agar with antibiotic and compound 3; assay type: cell-based, Pseudomonas aeruginosa
# Description: In a second experiment, 5 μL of logarithmic dilutions of an overnight culture of the 6 strains described in Table 1 were spotted on the MH agar plates prepared as above. An additional assay was also performed with these 6 strains using chloramphenicol as antibiotic instead of doxycycline.
# Fig 4 Compound 3 activity against P. aeruginosa strains over-expressing efflux pumps. The ability of bacteria to grow under various conditions was assessed in solid media containing, in a: 2 mg/L doxycycline (left) or a combination of 2 mg/L doxycycline and 10 μM compound 3 (right) and in b: 4 mg/L chloramphenicol (left) or a combination of 4 mg/L chloramphenicol and 10 μM compound 3 (right). 5 μL of logarithmic dilutions of an overnight culture of each strain were spotted on the plates. From top to bottom, PA01, PT629, PA01-ERY^R, PA0-7H, CMZ091 and FB1.
# [6] = system: P. aeruginosa strains; experiment: Synergy assays of compound 3 with representative anti-pseudomonal agents (summary in words, all strains); assay type: cell-based, Pseudomonas aeruginosa
# Description: We concluded that compound 3 was the best compound and suitable for a more detailed study. The same experiment was performed using chloramphenicol (4 mg/L) in combination with 3 (10 μM final concentration). Amongst the 20 clinical isolates, the growth of 15 (75%) was impaired, while 5 (25%) were resistant (data not shown). These experiments were performed to study the effect of our compounds on the natural resistance of P. aeruginosa. In addition, we were wondering if compound 3 could also increase susceptibility to other antibiotic families including ß-Lactams, fluoroquinolones and aminoglycosides, that are representative of the main classes of anti-pseudomonal agents. Experiments were performed with the ß-lactams ceftazidime and ticarcillin and ciprofloxacin and amikacin. […]. […] To better characterize compound 3, we first searched for the minimum concentration of compound that allowed killing of bacteria by doxycycline, and PAßN was used as the reference molecule.
# [7] = system: cytoplasmic membrane of PA01; experiment: Inner membrane depolarization assay (Disc3(5) fluorescence); assay type: cell-based, Pseudomonas aeruginosa; details: PA01, Disc3(5) fluorescence
# Description: Inner membrane depolarization assay
# Cells were grown to a mid-
# logarithmic phase, recovered by centrifugation (3000 X g for 20 min) and washed in 5 mM 4-(2-
# hydroxyethyl)piperazine-1-ethanesulfonic acid (HEPES, pH 7.0) containing 10 mM EDTA. After 5
# min incubation at room temperature, cells were recovered by centrifugation (3000 X g for 20
# min), and resuspended in 5 mM HEPES (pH 7.0) containing 50 mM glucose, OD600 nm was
# adjusted to 0.29. Five µl of a 160 µM suspension of [3,3’-Dipropylthiadicarbocyanine iodide]
# (Disc3(5)) were added after 90 sec to 100 µl of a bacterial suspension, in a 96-well Greiner black
# microplate, to reach 8 µM final concentration. After a 16.5 min incubation period allowing
# incorporation of the dye into the polarized membrane, 10 µl of the appropriate compound
# concentration were added. Fluorescence was monitored every 30 sec on an Infinite M200
# microplate reader (Tecan; excitation wavelength 622nm and emission wavelength 690nm).
# Assays were performed in two independent experiments and statistically significance was
# assessed using a student’s t-test. A p-value ≤ 0.05 was considered significant.
# (1 picture or pasted object on this page, not shown here)
# [8] = system: outer membrane of P. aeruginosa PA01; experiment: Outer membrane permeation assay (nitrocefin hydrolysis)
# Description: An overnight culture of PA01 was diluted 100-fold into 10 ml MHII broth containing 0.01 μg/ml of imipenem to induce a higher level of β-lactamases. […] Absorbance at 490 nm was monitored by spectrophotometry using an Infinite M200 microplate reader (Tecan) over 60 min. Experiments were performed in triplicate.
# [9] = Pseudomonas aeruginosa, read-out: Minimal Inhibitory Concentration
# [10] = chloramphenicol 4 mg/L + compound 10 μM
smiles,measurement,setting,value
CC(C)=CCCC(C)=CCCC(C)=CCNCCCNCCCCNCCCN [Compound 3],MIC of Amikacin in the presence of the compound,"[1]; PA01, compound 10µM",64 µg/mL
same,MIC of Ceftazidime in the presence of the compound,"[1]; PA01, compound 10µM",2 µg/mL
same,MIC of Ciprofloxacin in the presence of the compound,"[1]; PA01, compound 10µM",0.125 µg/mL
same,MIC of Ticarcillin in the presence of the compound,"[1]; PA01, compound 10µM",16 µg/mL
same,MIC,[1]; [9],25 µg/mL and 62.5 µM
same,decrease of MIC of ciprofloxacin,"[2]; PA0-7H (overproduces MexEF), compound 10 µM",4 times
same,MIC of Amikacin in the presence of the compound,"[2]; PA0-7H, compound 10µM",64 µg/mL
same,MIC of Ceftazidime in the presence of the compound,"[2]; PA0-7H, compound 10µM",1 µg/mL
same,MIC of Ciprofloxacin in the presence of the compound,"[2]; PA0-7H, compound 10µM",1 µg/mL
same,MIC of Ticarcillin in the presence of the compound,"[2]; PA0-7H, compound 10µM",4 µg/mL
same,MIC,[2]; [9],25 µg/mL and 62.5 µM
same,MIC of Amikacin in the presence of the compound,"[3]; CMZ091, compound 10µM",> 64 µg/mL
same,MIC of Ceftazidime in the presence of the compound,"[3]; CMZ091, compound 10µM",2 µg/mL
same,MIC of Ciprofloxacin in the presence of the compound,"[3]; CMZ091, compound 10µM",0.25 µg/mL
same,MIC of Ticarcillin in the presence of the compound,"[3]; CMZ091, compound 10µM",8 µg/mL
same,MIC,[3]; [9],25 µg/mL and 62.5 µM
same,clinical isolates resistant,[4]; [10],25%
same,clinical isolates resistant (number of 20),[4]; [10],5
same,clinical isolates whose growth was impaired,[4]; [10],75%
same,clinical isolates whose growth was impaired (number of 20),"[4]; chloramphenicol 4 mg/L + compound 10 μM, data not shown",15
same,MIC ratio (doxycycline),"[4]; clinical isolates, with compound",32
same,isolates with doxycycline susceptibility restored,"[4]; doxycycline 2 mg/L + compound 10 μM, 20 clinical isolates",total susceptibility of all the considered isolates
same,dilution of overnight culture at which growth was observed,"[5]; 2 μg/mL doxycycline + 10 μM compound 3, PA01 or strains overproducing MexCD or MexEF",10^−2
same,dilution above which no growth was observed,"[5]; 2 μg/mL doxycycline + 10 μM compound 3, all cases",10^−5
same,dilution of overnight culture at which growth was observed,"[5]; 2 μg/mL doxycycline + 10 μM compound 3, cells overproducing MexAB or MexXY",10^−4
same,growth on agar,"[5]; 2 μg/mL doxycycline + 10 μM compound 3, ΔmexB strain",did not grow at any of the dilutions
same,effect on growth with chloramphenicol,"[5]; 4 mg/L chloramphenicol + 10 μM compound 3, PT629 and PA0-7H",slight effect
same,synergy with ciprofloxacin,[6]; all strains with the exception of PA0-7H,No synergistic effect
same,effect of combination with ticarcillin,[6]; all the strains,slight effect
same,effect on the MIC of amikacin,[6]; every strains,surprising increase of the MIC
same,cytoplasmic membrane depolarization,[7],dissipated the proton motive force
same,outer membrane permeation efficacy,"[8]; compound at 15.6μM, p value ≤ 0.05",significantly identical to 31.25μM of PMBN
same,outer membrane permeation activity,"[8]; compound at 31.25μM, relative to 250 μM polymyxin-B",10%
